Experiment: Inhibitory activity against cellular Src protein tyrosine kinase using the actin ring assay

| IC50 [nM] | Compound |
| --- | --- |
| 10000 | CCS(=O)(=O)c1ccc2c(c1)/C(=C/c1[nH]c3c(c1CCCN1CCN(CC(=O)O)CC1)CCCC3)C(=O)N2 [[4-(3-{2-[5-Ethanesulfonyl-2-oxo-1,2-dihydro-indol-(3Z)-ylidenemethyl]-4,5,6,7-tetrahydro-1H-indol-3-yl}-propyl)-piperazin-1-yl]-acetic acid] |
| 500 | CCS(=O)(=O)c1ccc2c(c1)/C(=C/c1[nH]c3c(c1CCCN(C)C)CCCC3)C(=O)N2 [3-[1-[3-(3-Dimethylamino-propyl)-4,5,6,7-tetrahydro-1H-indol-2-yl]-meth-(Z)-ylidene]-5-ethanesulfonyl-1,3-dihydro-indol-2-one] |
| > 10000 | CCS(=O)(=O)c1ccc2c(c1)/C(=C/c1[nH]c3c(c1CCC(N)=O)CCCC3)C(=O)N2 [3-{2-[5-Ethanesulfonyl-2-oxo-1,2-dihydro-indol-(3Z)-ylidenemethyl]-4,5,6,7-tetrahydro-1H-indol-3-yl}-propionamide] |
| 900 | CCOC(=O)CN1CCN(CCCc2c(/C=C3\C(=O)Nc4ccc(S(=O)(=O)NC)cc43)[nH]c3c2CCCC3)CC1 [[4-(3-{2-[5-Methylsulfamoyl-2-oxo-1,2-dihydro-indol-(3Z)-ylidenemethyl]-4,5,6,7-tetrahydro-1H-indol-3-yl}-propyl)-piperazin-1-yl]-acetic acid ethyl ester] |
| > 10000 | CNS(=O)(=O)c1ccc2c(c1)/C(=C/c1[nH]c3c(c1CCC(N)=O)CCCC3)C(=O)N2 [3-{2-[5-Methylsulfamoyl-2-oxo-1,2-dihydro-indol-(3Z)-ylidenemethyl]-4,5,6,7-tetrahydro-1H-indol-3-yl}-propionamide] |
| 1000 | CNS(=O)(=O)c1ccc2c(c1)/C(=C/c1[nH]c3c(c1CN1CCOCC1)CCCC3)C(=O)N2 [3-[1-(3-Morpholin-4-ylmethyl-4,5,6,7-tetrahydro-1H-indol-2-yl)-meth-(Z)-ylidene]-2-oxo-2,3-dihydro-1H-indole-5-sulfonic acid methylamide] |
| 3000 | CNS(=O)(=O)c1ccc2c(c1)/C(=C/c1[nH]c3c(c1CCCN1CCN(CCO)CC1)CCCC3)C(=O)N2 [3-[1-(3-{3-[4-(2-Hydroxy-ethyl)-piperazin-1-yl]-propyl}-4,5,6,7-tetrahydro-1H-indol-2-yl)-meth-(Z)-ylidene]-2-oxo-2,3-dihydro-1H-indole-5-sulfonic acid methylamide] |
| 900 | CNS(=O)(=O)c1ccc2c(c1)/C(=C/c1[nH]c3c(c1CCCN1CCC(O)CC1)CCCC3)C(=O)N2 [3-[1-{3-[3-(4-Hydroxy-piperidin-1-yl)-propyl]-4,5,6,7-tetrahydro-1H-indol-2-yl}-meth-(Z)-ylidene]-2-oxo-2,3-dihydro-1H-indole-5-sulfonic acid methylamide] |
| 5000 | CCS(=O)(=O)c1ccc2c(c1)/C(=C/c1[nH]c3c(c1CN1CCOCC1)CCCC3)C(=O)N2 [5-Ethanesulfonyl-3-[1-(3-morpholin-4-ylmethyl-4,5,6,7-tetrahydro-1H-indol-2-yl)-meth-(Z)-ylidene]-1,3-dihydro-indol-2-one] |
| 1700 | CCS(=O)(=O)c1ccc2c(c1)/C(=C/c1[nH]c3c(c1CCCN1CCN(CCO)CC1)CCCC3)C(=O)N2 [5-Ethanesulfonyl-3-[1-(3-{3-[4-(2-hydroxy-ethyl)-piperazin-1-yl]-propyl}-4,5,6,7-tetrahydro-1H-indol-2-yl)-meth-(Z)-ylidene]-1,3-dihydro-indol-2-one] |
| 100 | CNS(=O)(=O)c1ccc2c(c1)/C(=C/c1[nH]c3c(c1CCCN1CCN(C)CC1)CCCC3)C(=O)N2 [3-[1-{3-[3-(4-Methyl-piperazin-1-yl)-propyl]-4,5,6,7-tetrahydro-1H-indol-2-yl}-meth-(Z)-ylidene]-2-oxo-2,3-dihydro-1H-indole-5-sulfonic acid methylamide] |
| > 10000 | CNS(=O)(=O)c1ccc2c(c1)/C(=C/c1[nH]c3c(c1CCCN1CCN(CC(=O)O)CC1)CCCC3)C(=O)N2 [[4-(3-{2-[5-Methylsulfamoyl-2-oxo-1,2-dihydro-indol-(3Z)-ylidenemethyl]-4,5,6,7-tetrahydro-1H-indol-3-yl}-propyl)-piperazin-1-yl]-acetic acid] |
| 800 | CCS(=O)(=O)c1ccc2c(c1)/C(=C/c1[nH]c3c(c1CCCN1CCC(O)CC1)CCCC3)C(=O)N2 [5-Ethanesulfonyl-3-[1-{3-[3-(4-hydroxy-piperidin-1-yl)-propyl]-4,5,6,7-tetrahydro-1H-indol-2-yl}-meth-(Z)-ylidene]-1,3-dihydro-indol-2-one] |
| 100 | CNS(=O)(=O)c1ccc2c(c1)/C(=C/c1[nH]c3c(c1CCCN1CCOCC1)CCCC3)C(=O)N2 [3-[1-[3-(3-Morpholin-4-yl-propyl)-4,5,6,7-tetrahydro-1H-indol-2-yl]-meth-(Z)-ylidene]-2-oxo-2,3-dihydro-1H-indole-5-sulfonic acid methylamide] |

Source: BindingDB's records for doi:10.1016/j.bmcl.2003.09.069 (Sugen, 2003)
